Values quoted from earlier work, collected in PMC12296474, “Nano-Amounts of Glucagon Premixed With Fast-Acting Insulin Lispro: Effect on Insulin Absorption in Pigs” (Current Therapeutic Research, Clinical and Experimental, 2025).

Tested on: subcutaneous blood flow
Conditions: healthy subjects
Description: We focused our proof-of-concept experiments on adding nanogram doses of glucagon to Lyumjev^Ⓡ, the most fast-acting insulin formulation available on the market. As previously discussed, we believe glucagon may increase insulin absorption through significant but very localized subcutaneous vasodilation. Therefore, it is noteworthy that when glucagon was added to Lyumjev^Ⓡ, an insulin formulation that already contains 10 ng of the vasodilator treprostinil per unit of insulin, we observed even faster insulin absorption. This effect was not observed in experiments with glucagon added to Humalog^Ⓡ. ...

glucagon
Enhancement of subcutaneous blood flow: 4% to 500
